Here are results for twelve molecules from ChEMBL document CHEMBL1126714, “Structure, DNA minor groove binding, and base pair specificity of alkyl- and aryl-linked bis(amidinobenzimidazoles) and bis(amidinoindoles)” (J Med Chem, 1993).

What all share (assay type): nucleic-acid assay
The test system of assay [1] is Nucleic Acid. Nature of the assay: Ratio between poly-dAdT and poly-dGdC binding.
The test system of assay [2] is Nucleic Acid. Nature of the assay: Thermal denaturation in alternating poly(dG-dC)-poly(dG-dC) homopolymer (GC).
The test system of a further assay is Calf thymus DNA. Nature of the assay: Thermal denaturation in sonicated calf thymus DNA (CT DNA). The settings on record: Bos taurus.
For assay [3], the system named is Nucleic Acid. Nature of the assay: Thermal denaturation in alternating poly(dA-dT)poly(dA-dT) homopolymer (AT).
The test system of assay [4] is Nucleic Acid. Nature of the assay: Thermal denaturation in sonicated poly(dA)-poly(dT) homopolymer (AT).

A word on the Tm: it is the temperature at the midpoint of the melting transition. Consider `CC[n+]1c(-c2ccccc2)c2cc(N)ccc2c2ccc(N)cc21`, for which, in the assay on Nucleic Acid [1], the Ratio is 3. The Tm turned out to be 5.3 °C in the assay on Nucleic Acid [2], 12.4 °C in the assay on Calf thymus DNA, 16.8 °C in the assay with Nucleic Acid [3] and 9.9 °C with Nucleic Acid [4].

Consider `C/C(=C(/C)c1nc2cc(C(=N)N)ccc2[nH]1)c1nc2cc(C(=N)N)ccc2[nH]1`, for which, in the assay with Nucleic Acid [1], the Ratio amounted to 3. In addition, the Tm with Nucleic Acid [2] stood at 4.6 °C; with Calf thymus DNA, 14.1 °C; in the assay on Nucleic Acid [3] it was 15.6 °C; with Nucleic Acid [4], 17.3 °C.

`OC/C=N\c1ccc2[nH]c(CCc3nc4cc(/N=C/CO)ccc4[nH]3)nc2c1`: in the assay on Nucleic Acid [1], the Ratio was 3. In addition, the Tm in the assay with Nucleic Acid [2] came to 0.7 °C; in the assay on Calf thymus DNA, 2 °C; in the assay on Nucleic Acid [3] it was 1.4 °C; in the assay on Nucleic Acid [4], 4.5 °C.

Take `N=C(N)c1ccc2[nH]c(-c3cccc(-c4nc5cc(C(=N)N)ccc5[nH]4)c3)nc2c1`: in the assay on Nucleic Acid [1], the Ratio came to 4. Further, the melting temperature (Tm) with Nucleic Acid [2] amounted to 5.6 °C; in the assay on Calf thymus DNA, 12.8 °C; with Nucleic Acid [3], 23.9 °C; in the assay on Nucleic Acid [4], 34.6 °C.

For `N=C(N)c1ccc2c(ccn2CCCn2ccc3cc(C(=N)N)ccc32)c1`, the Ratio in the assay with Nucleic Acid [1] was 3.1. Besides, the Tm in the assay on Nucleic Acid [2] was 6.5 °C; with Calf thymus DNA, 13.7 °C; in the assay on Nucleic Acid [3], 20.3 °C; with Nucleic Acid [4], 19.2 °C.

For `N=C(N)c1ccc(OCCCCCOc2ccc(C(=N)N)cc2)cc1`, the Ratio in the assay with Nucleic Acid [1] is 6. Besides, the Tm came out at 3.2 °C in the assay with Nucleic Acid [2], 10.7 °C in the assay with Calf thymus DNA, 20.2 °C in the assay on Nucleic Acid [3] and 22.9 °C with Nucleic Acid [4].

Consider `CN1CCN(c2ccc3[nH]c(-c4ccc5[nH]c(-c6ccc(O)cc6)nc5c4)nc3c2)CC1`, for which the Ratio with Nucleic Acid [1] is 10. The Tm in the assay on Nucleic Acid [2] was determined as 2.5 °C; in the assay with Calf thymus DNA, 14.1 °C; with Nucleic Acid [3] it was 24.1 °C; in the assay on Nucleic Acid [4], 32.4 °C.

For the molecule `N=C(N)c1ccc2[nH]c(/C=C/c3nc4cc(C(=N)N)ccc4[nH]3)nc2c1`, the Ratio in the assay with Nucleic Acid [1] came to 7. Also, the Tm was determined as 5.8 °C in the assay with Nucleic Acid [2], 21.8 °C in the assay on Calf thymus DNA, 42.4 °C in the assay with Nucleic Acid [3] and 46.1 °C in the assay with Nucleic Acid [4].

Take `N=C(N)c1ccc2[nH]c(CCCCCCc3nc4cc(C(=N)N)ccc4[nH]3)nc2c1`: in the assay on Nucleic Acid [1], the Ratio turned out to be 8. For the same molecule, the midpoint of thermal melting (Tm) with Nucleic Acid [2] was 3.5 °C; in the assay with Calf thymus DNA it was 13.5 °C; with Nucleic Acid [3], 28 °C; in the assay on Nucleic Acid [4] it was 34 °C.

With `N=C(N)c1ccc2c(ccn2CCCCCCn2ccc3cc(C(=N)N)ccc32)c1`, the Ratio with Nucleic Acid [1] amounted to 2.3. Besides, the Tm with Nucleic Acid [2] turned out to be 5.9 °C; with Calf thymus DNA it was 10.5 °C; with Nucleic Acid [3], 13.4 °C; in the assay on Nucleic Acid [4] it was 17.7 °C.

With `N=C(N)c1ccc2[nH]c(CCCCc3nc4cc(C(=N)N)ccc4[nH]3)nc2c1`, in the assay with Nucleic Acid [1], the Ratio was determined as 9. Further, the Tm with Nucleic Acid [2] was determined as 3.3 °C; with Calf thymus DNA, 15.9 °C; with Nucleic Acid [3], 31.3 °C; in the assay with Nucleic Acid [4], 33.5 °C.

As to `N=C(N)c1ccc2[nH]c(CCCc3nc4cc(C(=N)N)ccc4[nH]3)nc2c1`, the Ratio in the assay on Nucleic Acid [1] stood at 6. In addition, the Tm in the assay on Nucleic Acid [2] was 3.3 °C; with Calf thymus DNA it was 10.6 °C; in the assay with Nucleic Acid [3], 20.1 °C; with Nucleic Acid [4], 30.6 °C.
